Consider one molecule from article PMC3574224, “Na^+ Regulation in the Malaria Parasite Plasmodiumfalciparum Involves the Cation ATPase PfATP4 and Is a Target of the Spiroindolone Antimalarials” (Cell Host & Microbe, 2013).

The test system of experiment [1] is P. falciparum NITD609-R^Dd2 clone #2 (mutant PfATP4). Description: Disruption of [Na^+]i regulation, SBFI-loaded trophozoites, NITD609-R^Dd2 clone #2. Type of experiment: cell-based. To be noted: Plasmodium falciparum, from fitted curves, read-out: IC50 for disruption of Na^+ regulation by NITD246. As to the method: (§1) The [Na^+]i of saponin-isolated parasites was measured at 37°C using the Na^+-sensitive dye SBFI (Molecular Probes, Invitrogen) in conjunction with a PerkinElmer LS 50B Fluorescence Spectrometer fitted with a Dual Excitation Fast Filter. Saponin-isolated parasites were loaded with SBFI by suspension (at 1.40–1.80 × 10^8 cells/mL) for 20 min at 37°C in bicarbonate-free RPMI1640 supplemented with 20 mM D-glucose, 0.2 mM hypoxanthine, 25 mM HEPES, and 25 mg/L gentamycin sulfate (pH 7.10), to which SBFI-acetoxymethyl ester (5.5 μM) and Pluronic F-127 (0.01% w/v) were added. The dye-loaded cells were washed twice (12,000 × g, 0.5 min) in bicarbonate-free RPMI then incubated for a further 20 min at 37°C to allow for complete de-esterification of the dye before being resuspended at a final cell concentration of 1.5–2.5 × 10^7 cells/mL in standard saline. The dye-loaded cells were excited at 340 nm and 380 nm with fluorescence recorded at 490 nm. Calibration of the relationship between the 340/380 nm fluorescence ratio and [Na^+]i (see Figures S1A–S1C) was carried out as described previously ([Diarra et al., 2001]; [Harootunian et al., 1989]). Several inhibitors used in this study caused inner filter effects ([Gu and Kenny, 2009]; [Srinivas and Mutharasan, 1987]); in these cases calibration curves were generated with the inhibitors present. […]

Experiment [2] relates to P. falciparum Dd2^attB parent. Description: Disruption of [Na^+]i regulation, SBFI-loaded trophozoites, Dd2^attB parent. Type of experiment: cell-based. To be noted: Plasmodium falciparum, from fitted curves, read-out: IC50 for disruption of Na^+ regulation by NITD246. The method, then: as §1

As for `C[C@H]1Cc2c([nH]c3cc(F)c(F)cc23)[C@@]2(N1)C(=O)Nc1ccc(Cl)cc12` [NITD246], the IC50 in experiment [1] came out at 10.4 ± 8.4 nM; in experiment [2], 1.7 ± 0.5 nM.
